Source: patent US20030093842A1, “Resistance marker for monocotyledons” (Biogemma UK Limited, priority 1997, published 2003)

Tested on: immature embryos of NB1
Assay: Asulam kill curve: production of embryogenic callus by immature embryos on Asulam-supplemented W3 medium
Type: cell-based, wheat
Conditions: scored after 6 weeks
Procedure: The tissue culture protocol was essentially as the method of Weeks et al (Plant Physiol., 102:1077-1084 (1993)). Donor plants of the South American spring wheat line designated NB1, obtained from Nickerson Seeds Limited, were grown in a glasshouse under controlled conditions. Immature ears were harvested at 14-20 days post anthesis, and the immature caryopses were removed from the ear and dehusked using forceps. Caryopses were surface-sterilised with 70% ethanol for 2 minutes and 20% Domestos™ (Lever, UK) for 20-30 minutes and then washed with sterile distilled water. Immature embryos were isolated aseptically under a stereo dissecting microscope and placed scutella uppermost on W3 medium (MS supplemented with 20 g/l sucrose and 2 mg/l 2,4-D and solidified with 6 g/l Type I agarose [Sigma, Poole, UK]). Cultures were maintained at 25° C. with a 16 h photoperiod for 5 days prior to bombardment. Immature embryos were isolated as described for example 1, plated onto W3 medium and maintained in the dark. After 5-7 days embryos were transferred to W3 medium supplemented with Asulam (Rhone-Poulenc Agrochemicals, Ongar, UK) at a range of concentrations between 0 and 5 mg/l and maintained at 25° C. with a 16 h photo period. Embryos and embryo-derived embryogenic calli were transferred to fresh selective medium every 2 weeks. The calli were scored for embryogenic response after 6 weeks.

**Q.** Which “Embryogenic response (%)” value (Asulam 0.1 mg/l in W3 medium, (no. embryos with embryogenic callus/total no. embryos plated) × 100) does the source give for `COC(=O)NS(=O)(=O)c1ccc(N)cc1` [Asulam] here?
**A.** The value was 100%.

**Q.** And the “Embryogenic response (%)” value (Asulam 0.25 mg/l in W3 medium)?
**A.** Its value is 64%.

**Q.** And the “Embryogenic response (%)” value (Asulam 0.5 mg/l in W3 medium)?
**A.** Its value is 28%.

**Q.** What about the “Embryogenic response (%)” value (Asulam 1 mg/l in W3 medium) of the same compound?
**A.** Its value is 0%.

**Q.** What about the “Embryogenic response (%)” value (Asulam 2 mg/l in W3 medium) of the same compound?
**A.** The value was 0%.

**Q.** And the “Embryogenic response (%)” value (Asulam 3 mg/l in W3 medium)?
**A.** The value was 0%.

**Q.** What about the “Embryogenic response (%)” value (Asulam 4 mg/l in W3 medium) of the same compound?
**A.** Its value is 0%.

**Q.** What about the “Embryogenic response (%)” value (Asulam 5 mg/l in W3 medium) of the same compound?
**A.** Its value is 0%.
